Measured values reported in ChEMBL document CHEMBL1914396, “Solid-state NMR analysis of interaction sites of curcumin and 42-residue amyloid β-protein fibrils” (Bioorg Med Chem, 2011).
The source made the active and inactive calls. No cut-off for these calls is given here.

Assays:
[1] = Binding affinity to V12 of [13C]-labelled N-terminus amyloid beta (1 to 42) fibrils after 48 hrs by 2D-DARR spectroscopy
[2] = Binding affinity to F4 of [13C]-labelled N-terminus amyloid beta (1 to 42) fibrils after 48 hrs by 2D-DARR spectroscopy
[3] = Binding affinity to [13C]-labelled amyloid beta (1 to 42) fibrils assessed as change in morphology of fibrillation at 50 uM after 1 hr using uranyl acetate dye by Transmission electron microscopy
[4] = Binding affinity to G9 of [13C]-labelled N-terminus amyloid beta (1 to 42) fibrils after 48 hrs by 2D-DARR spectroscopy
[5] = Binding affinity to [13C]-labelled at 17-21 positions of amyloid beta (1 to 42) fibrils after 48 hrs by 2D-DARR spectroscopy
[6] = Binding affinity to [13C]-labelled at 17-21 positions of amyloid beta (1 to 42) fibrils by NMR spectroscopy
[7] = Binding affinity to A2 of [13C]-labelled N-terminus amyloid beta (1 to 42) fibrils after 48 hrs by 2D-DARR spectroscopy

COc1cc(/C=C/C(=O)CC(=O)/C=C/c2ccc(O)c(OC)c2)ccc1O
Activity [1]: Active | Activity [2]: inactive | Activity [3]: inactive | Activity [4]: inactive | Activity [5]: Active | Activity [6]: Active | Activity [7]: inactive
